Key:
[1] = system: U-937 human histocytic lymphoma; assay: In vitro inhibition rate to tumor cells (MTT), U-937; assay type: cell-based; conditions: 50 μg/ml
Procedure: (§1) (1) Single cell suspension was seeded into 96-well plates (×3) (the cells was diluted in the PRMI-1640 minimum medium to 3×10^4 cells/ml, […] diluted cells/well). […] The experiments were performed in quadruplicate.
(§2) (2) The medium was removed. Solutions of the anti-tumor agents (15 compounds) were prepared in a freshly prepared medium at the concentrations indicated in the following Table. […] of the solution was added into each well. Incubation was continued for 48 hours.
(§3) (3) […] of 2 mg/ml MTT was added into each well, and incubated for 4 hours.
(§4) (4) The medium was removed from the well. The microplates were swiftly turned down to throw-off the medium. […] DMSO was added into each well, and vortexed at room temperature for 10 minutes.
(§5) (5) OD value (λ=570 nm) was measured with an Enzyme-Linked Detector.
(§6) (6) The inhibition rates (IR) of cell growth were respectively calculated based on the following equation: IR(%)=[1−(average OD of the experimental group/average OD of the control group)]×100%

[2] = system: A-549 human lung adenocarcinoma; assay: In vitro inhibition rate to tumor cells (MTT), A-549; assay type: cell-based; conditions: 50 μg/ml
Procedure: as §1, §2, §3, §4, §5, §6

[3] = system: Bel-7402 human hepatic carcinoma; assay: In vitro inhibition rate to tumor cells (MTT), Bel-7402; assay type: cell-based; conditions: 50 μg/ml
Procedure: as §1, §2, §3, §4, §5, §6

[4] = system: MCF-7 human mammary adenocarcinoma; assay: In vitro inhibition rate to tumor cells (MTT), MCF-7; assay type: cell-based; conditions: 50 μg/ml
Procedure: as §1, §2, §3, §4, §5, §6

[5] = system: SMMC-7721 human hepatic carcinoma; assay: In vitro inhibition rate to tumor cells (MTT), SMMC-7721; assay type: cell-based; conditions: 50 μg/ml
Procedure: as §1, §2, §3, §4, §5, §6

[6] = system: HL-60 human promyelocytic leukemia; assay: In vitro inhibition rate to tumor cells (MTT), HL-60; assay type: cell-based; conditions: 50 μg/ml
Procedure: as §1, §2, §3, §4, §5, §6

[7] = system: Hela human cervical carcinoma; assay: In vitro inhibition rate to tumor cells (MTT), Hela; assay type: cell-based; conditions: 50 μg/ml
Procedure: as §1, §2, §3, §4, §5, §6

[8] = system: LLC mouse Lewis lung carcinoma; assay: In vitro inhibition rate to tumor cells (MTT), LLC; assay type: cell-based; conditions: 50 μg/ml
Procedure: as §1, §2, §3, §4, §5, §6

mouse lung cancer Lewis = assay: Activity against mouse grafted lung cancer Lewis; assay type: in vivo, Kunming mice; conditions: Lewis, first experiment, 1 mg/kg
Procedure: The experiments were performed according to “Guideline for New Drugs (Western medicines) in Pre-clinical Stages” issued by Bureau of Drug Policy & Administration of the People's Republic of China, and the relevant methods in “Methodology of Pharmaceutical Experiments”, Xu Shuyun et al. ed. 120 male Kunming mice weighting […] were allowed to grow 3 days. No abnormality was observed. The mice were routinely inoculated in oxter with mouse sarcoma S-180, and weighted 4 hrs. after inoculation. The mice were randomly divided into 12 groups, 10 mice/group. Group 1 was given 0.3 ml of physiological saline as negative control; Group 2 was given 5-FU as positive control, 0.6 mg/mouse; Group 3 was given hydroxycamptothecine as positive control, 0.02 mg/mouse. Groups 4, 5 and 6 were injected with 10% Compound 6, 0.4 ml/mouse, 0.2 ml/mouse, and 0.1 ml/mouse, respectively. Groups 7, 8 and 9 were injected with 10% Compound 8, 0.4 ml/mouse, 0.2 ml/mouse, and 0.1 ml/mouse, respectively. Groups 10, 11, and 12 were injected with 10% Compound 20, 0.4 ml/mouse, 0.2 ml/mouse, and 0.1 ml/mouse, respectively. The tested compounds were administered on the next day after inoculation, once a day on alternate days, 6 doses totally administered. On the next day after the end dose, the mice were weighed and sacrificed. After the tumor was excised, body weight and tumor weight were recorded. The tumor inhibition rate was calculated based on the following formula: [(average tumor weight of the control groups−average tumor weight of the experimental groups)/average tumor weight of the control groups]×100%. The data was processed statistically. The above experiments were repeated three times.
The experiments were identical with the experiments for activity against mouse grafted sarcoma S-180, except the following:
(1) the tumor cell line inoculated was mouse lung cancer Lewis;
(2) Compound 6, Compound 8 and Compound 21 were not tested for their activity;
(3) the mice were divided into six groups.

[9] = biological target: T1, HIV-1 proteinase (HIV-1 PR) (Human immunodeficiency virus type 1 group M subtype B, UniProt P04585); assay: Screening for in vitro activity against HIV-1 proteinase; assay type: biochemical; conditions: read-out: Inhibition rate, 10 nM
T1 construct: HIV-1 proteinase digests the fluorescent-labeled substrate; purchased
Procedure: Principle of the test: HIV-1 proteinase digests the fluorescent-labeled substrate in an optimal reaction condition and system. The activity of the enzyme can be reflected by the fluorescent intensity in the product of the enzyme reaction. Adding a sample into the reaction system can be used for screening the inhibitor of the enzyme.
1. HIV-1 PR: commercially available, stored at −85° C.
2. Treatment of the samples: Before use, sample was dissolved in DMSO at a suitable concentration, then serially diluted (5×) with double distilled water, five serial dilutions per sample.
3. Positive control: indinavir, purchased from […].
4. Methods: The diluted sample was added into the reaction buffer containing the fluorescent-labeled substrate. Then the genetic engineered target enzyme was added, and incubated in the optimal reaction condition. The fluorescent value was measured with a FLUO star Galaxy luminoscope.

Structure (SMILES)	inhibition rate, Results (%) U-937 ([1]; Table 1)	inhibition rate, Results (%) U-937 ([1]; Table 2 (repeated screening))	inhibition rate, Results (%) A-549 ([2]; Table 1)	inhibition rate, Results (%) A-549 ([2]; Table 2 (repeated screening))	inhibition rate, Results (%) Bel-7402 ([3]; Table 1)	inhibition rate, Results (%) Bel-7402 ([3]; Table 2 (repeated screening))	inhibition rate, Results (%) MCF-7 ([4]; Table 1)	inhibition rate, Results (%) MCF-7 ([4]; Table 2 (repeated screening))	inhibition rate, Results (%) SMMC-7721 ([5]; Table 1)	inhibition rate, Results (%) SMMC-7721 ([5]; Table 2 (repeated screening))	inhibition rate, Results (%) HL-60 ([6]; Table 1)	inhibition rate, Results (%) HL-60 ([6]; Table 2 (repeated screening))	inhibition rate, Results (%) Hela ([7]; Table 1)	inhibition rate, Results (%) Hela ([7]; Table 2 (repeated screening))	inhibition rate, Results (%) LLC ([8]; Table 1)	inhibition rate, Results (%) LLC ([8]; Table 2 (repeated screening))	Average weight (g)-after administration (mouse lung cancer Lewis)	Inhibition rate (%) (mouse lung cancer Lewis)	Tumor weight (mouse lung cancer Lewis; X ± SD, n = 10)	inhibition at 0.01 µM [9]
CC(C)C1CC23OC1(O)CC(C)(O[N+](=O)[O-])C2CCC3C (centres unmarked) [Compound 36, Curcumol mononitrate without double bond]	6.98%	5.32%	9.21%	1.20%	0.22%	0.02%	−1.23%	−2.31%	15.39%	14.08%	1.03%	2.01%	62.13%	65.23%	11.56%	11.56%	–	–	–	–
CC(C)C1CC23OC1(O)CC(CN1CCNCC1)(N1CCNCC1)C2CCC3C (centres unmarked) [Compound 41, Curcumol bispiperazine]	8.65%	−1.02%	−2.50%	−7.89%	16.78%	1.23%	36.45%	31.28%	4.42%	3.12%	6.78%	1.86%	50.32%	51.23%	30.96%	23.65%	–	–	–	–
CC(C)C1CC23OC1(O)CC(CN1CCNCC1)(N1CCNCC1)C2CCC3C.Cl (centres unmarked) [Compound 42, Curcumol bispiperazine hydrochloride]	−12.5%	−1.03%	10.16%	3.12%	2.15%	14.36%	34.21%	30.12%	6.86%	0.79%	2.73%	3.14%	55.64%	54.03%	9.99%	1.79%	–	–	–	–
CC(C)C1CC23OC1(O)CC(C)(N1CCNCC1)C2CCC3C.Cl (centres unmarked) [Compound 44, Curcumol piperazine hydrochloride without double bond]	35.64%	23.56%	23.01%	20.33%	−6.54%	0.23%	25.55%	24.11%	−10.53%	−7.89%	3.71%	5.37%	55.14%	50.01%	23.35%	17.565%	–	–	–	–
CCCCNC1(C)CC2(OC)OC3(CC2C(C)C)C(C)CCC13 (centres unmarked) [Compound 45, Curcumol methyl ether n-butyl amine without double bond]	32.19%	12.32%	2.10%	0.32%	3.01%	5.02%	26.78%	20.73%	−10.73%	−11.23%	6.14%	1.23%	59.45%	53.12%	2.74%	1.32%	–	–	–	–
CCCCNC1(C)CC2(OC)OC3(CC2C(C)C)C(C)CCC13.Cl (centres unmarked) [Compound 46, Curcumol methyl ether n-butyl amine hydrochloride without double bond]	16.32%	8.65%	3.12%	3.78%	4.55%	4.65%	19.88%	14.98%	−0.86%	−0.45%	−2.60%	−4.56%	53.12%	49.56%	−12.99%	−17.56%	–	–	–	–
CC(=O)OC12CC(=O)C3CCC(C)C3(CC1C(C)C)O2 (centres unmarked) [Compound 49, Curzerenone acetate]	78.65%	75.23%	5.36%	4.23%	2.69%	14.02%	0.65%	1.56%	−11.3%	−1.78%	55.35%	57.89%	79.8%	75.65%	−0.15%	0.12%	–	–	–	–
CC[C@@]1(O)C(=O)OCc2c1cc1n(c2=O)Cc2cc3cc(O)ccc3nc2-1 [Hydioxycamptothecine]	–	–	–	–	–	–	–	–	–	–	–	–	–	–	–	–	21.0 g	49.7%	1.50 ± 0.28 g	–
CC(C)(C)NC(=O)[C@@H]1CN(Cc2cccnc2)CCN1C[C@@H](O)C[C@@H](Cc1ccccc1)C(=O)N[C@H]1c2ccccc2C[C@H]1O [indinavir]	–	–	–	–	–	–	–	–	–	–	–	–	–	–	–	–	–	–	–	92.1%

— patent publication US7700584B2 (Hangzhou Minsheng Pharmaceuticals Co., Ltd., priority 2004, dated 2010)
